Results: publication PMC7177456, “A Peptidomimetic Fluorescent Probe to Detect the Trypsin β2 Subunit of the Human 20S Proteasome” (International Journal of Molecular Sciences, 2020)

Test system: 20S proteasome
Assay: Library deconvolution, cleavage rates of sublibraries and individual compounds
Format: biochemical, human
Details: P4 Dap(O2(Cbz)), P3 Dap(GO1); 3.4 × 10^−6 M; 20S proteasome 1.46 × 10^−9 M; pH 8.2, 37 °C
Description: Deconvolution of the synthesized library with a fixed Arg in position P1 and diversified by DAPEG residues at positions P2–P4 was performed in a solution using a mix and split approach. […] Since the proteasome structure has three pairs of catalytically active subunits with distinct specificities (chymotrypsin, trypsin, and caspase), we repeated these experiments in the presence of a trypsin subunit inhibitor (PR671A). In effect, a 96% reduction in activity was recorded. This observation allowed us to proceed with screening at position P3 (Figure 2A).
Figure 2 Deconvolution of the library (at an average concentration of 3.4 × 10^−6 M) with the general formula ABZ–X4–X3–X2–Arg–ANB–NH2 against the 20S proteasome (1.46 × 10^−9 M). (A) Cleavage rates of individual sublibraries recorded for position X4; (B) Cleavage rates of individual sublibraries recorded for position X3; (C) Cleavage rates of individual compounds modified in position X2. […]
For enzymatic studies, the human 20S proteasome, 26S proteasome, and 20S immunoproteasome were purchased from Boston Biochem (Cambridge, MA, USA). […] The volume composition of each well of the 96-well plate was: 20 µL library, 160 µL assay buffer, and 20 µL 20S proteasome solution at a concentration of 1.07 × 10^−9 M. Absorbance or fluorescence measurements were performed on a FluoroStar OMEGA multimode microplate reader (BMG, Ortenberg, Germany). […]

Substance: ABZ–Dap(O2(Cbz))–Dap(GO1)–Dap(O2(Cbz))–Arg–ANB–NH2 [substrate 1]
- cleavage rate, position P2 (X2), individual compounds: significantly higher compared to the rates of the other tested systems
